Laboratory results taken from the supplement of paper PMC10307832.

Columns and labels:
Assay in all cases: relative viability (nuclei count vs DMSO), 5 days (fraction); higher = more cells survive
[1] = compound: CS(=O)(=O)N1CCN(Cc2cc3nc(-c4cccc5[nH]ncc45)nc(N4CCOCC4)c3s2)CC1 [Pictilisib] + CC(C)C[C@H](NC(=O)[C@H](Cc1ccccc1)NC(=O)c1cnccn1)B(O)O [Bortezomib] (partner 0.002 µM)
Summary of the method: (§1)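 Lung cancer cell lines in 1536-well plates were dosed by pin tool the day after seeding, either with one drug alone or with a fixed anchor-drug dose plus five library-drug doses (not always all listed) in √10 steps. After 5 days, cells were fixed and their nuclei stained in one step (final 0.05% Triton X-100, 1% formaldehyde, 1 ug/ml Hoechst), then counted on 4× images. Relative viability is the nuclei count in treated wells divided by that in vehicle wells. Values are medians of duplicate plates.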

[2] = compound: CS(=O)(=O)N1CCN(Cc2cc3nc(-c4cccc5[nH]ncc45)nc(N4CCOCC4)c3s2)CC1 [Pictilisib] + CC(=O)c1c(C)c2cnc(Nc3ccc(N4CCNCC4)cn3)nc2n(C2CCCC2)c1=O [Palbociclib] (partner 0.5 µM)
Summary of the method: as §1

[3] = compound: CS(=O)(=O)N1CCN(Cc2cc3nc(-c4cccc5[nH]ncc45)nc(N4CCOCC4)c3s2)CC1 [Pictilisib] + CCNC(=O)c1noc(-c2cc(C(C)C)c(O)cc2O)c1-c1ccc(CN2CCOCC2)cc1 [Luminespib] (partner 0.01 µM)
Summary of the method: as §1

[4] = compound: NC1(c2ccc(-c3nc4ccn5c(=O)[nH]nc5c4cc3-c3ccccc3)cc2)CCC1 [MK-2206] + Cc1cc(Nc2cc(N3CCN(C)CC3)nc(Sc3ccc(NC(=O)C4CC4)cc3)n2)n[nH]1 [Tozasertib] (partner 0.1 µM)
Summary of the method: as §1

[5] = compound: CS(=O)(=O)N1CCN(Cc2cc3nc(-c4cccc5[nH]ncc45)nc(N4CCOCC4)c3s2)CC1 [Pictilisib] + NC(=O)Nc1cc(-c2cccc(F)c2)sc1C(=O)N[C@H]1CCCNC1 [AZD7762] (partner 0.2 µM)
Summary of the method: as §1

Cell Line | relative viability ([1]; first compound 0.02 µM) | relative viability ([1]; first compound 0.06325 µM) | relative viability ([1]; first compound 0.6325 µM) | relative viability ([1]; first compound 2 µM) | relative viability ([2]; first compound 0.02 µM) | relative viability ([2]; first compound 0.06325 µM) | relative viability ([2]; first compound 0.6325 µM) | relative viability ([2]; first compound 2 µM) | relative viability ([3]; first compound 0.02 µM) | relative viability ([3]; first compound 0.06325 µM) | relative viability ([3]; first compound 0.6325 µM) | relative viability ([3]; first compound 2 µM) | relative viability ([4]; first compound 0.01 µM) | relative viability ([4]; first compound 0.03162 µM) | relative viability ([4]; first compound 0.3162 µM) | relative viability ([4]; first compound 1 µM) | relative viability ([5]; first compound 0.02 µM) | relative viability ([5]; first compound 0.06325 µM) | relative viability ([5]; first compound 0.6325 µM) | relative viability ([5]; first compound 2 µM)
NCI-H2405 | 1.03 | 0.961 | 0.919 | 0.651 | 0.579 | 0.536 | 0.474 | 0.374 | 0.694 | 0.611 | 0.416 | 0.235 | 0.818 | 0.799 | 0.662 | 0.635 | 0.784 | 0.629 | 0.427 | 0.264
NCI-H1666 | 0.854 | 0.744 | 0.545 | 0.388 | 0.606 | 0.713 | 0.668 | 0.607 | 1.02 | 1.07 | 0.937 | 0.651 | 0.636 | 0.631 | 0.647 | 0.594 | 0.814 | 0.763 | 0.804 | 0.532
H3255 | 0.881 | 0.832 | 0.632 | 0.395 | 0.314 | 0.375 | 0.297 | 0.292 | 0.922 | 0.796 | 0.688 | 0.666 | 0.773 | 0.663 | 0.511 | 0.703 | 0.814 | 0.8 | 0.832 | 0.578
LCLC-103H | 1.02 | 0.982 | 0.779 | 0.775 | 0.525 | 0.485 | 0.44 | 0.351 | 0.989 | 0.903 | 0.606 | 0.438 | 0.495 | 0.609 | 0.516 | 0.477 | 0.803 | 0.728 | 0.588 | 0.456
NCI-H2347 | 1.05 | 1.12 | 0.938 | 0.567 | 0.448 | 0.398 | 0.433 | 0.363 | 0.444 | 0.518 | 0.423 | 0.264 | 0.521 | 0.631 | 0.561 | 0.496 | 0.796 | 0.806 | 0.546 | 0.396
HCC-15 | 1.01 | 1.01 | 1.02 | 0.899 | 0.682 | 0.704 | 0.678 | 0.475 | 0.493 | 0.346 | 0.38 | 0.291 | 0.397 | 0.394 | 0.28 | 0.235 | 1.23 | 1.25 | 0.989 | 0.78
NCI-H838 | 0.77 | 0.744 | 0.606 | 0.313 | 0.191 | 0.206 | 0.174 | 0.124 | 0.332 | 0.262 | 0.241 | 0.258 | 0.286 | 0.259 | 0.26 | 0.253 | 0.906 | 0.747 | 0.928 | 0.809
RERF-LC-KJ | 1.13 | 1.13 | 1.09 | 0.672 | 1.02 | 1.15 | 0.815 | 0.711 | 1.23 | 1.29 | 1 | 0.855 | 0.538 | 0.529 | 0.461 | 0.364 | 0.999 | 0.916 | 0.855 | 0.55
ChaGo-K-1 | 1.16 | 1.1 | 1.09 | 0.828 | 0.942 | 0.954 | 0.844 | 0.72 | 0.663 | 0.63 | 0.502 | 0.499 | 0.236 | 0.268 | 0.2 | 0.228 | 0.858 | 0.913 | 0.864 | 0.784
NCI-H441 | 0.702 | 0.373 | 0.41 | 0.338 | 0.216 | 0.192 | 0.152 | 0.148 | 0.307 | 0.236 | 0.269 | 0.221 | 0.68 | 0.573 | 0.498 | 0.462 | 1.18 | 1.11 | 1.11 | 0.7
PC-14 | 1.04 | 0.794 | 0.89 | 0.573 | 0.488 | 0.564 | 0.507 | 0.334 | 0.162 | 0.151 | 0.141 | 0.123 | 0.593 | 0.653 | 0.587 | 0.642 | 0.399 | 0.366 | 0.246 | 0.155
NCI-H1437 | 0.582 | 0.488 | 0.532 | 0.231 | 0.309 | 0.337 | 0.401 | 0.216 | 1.14 | 1.16 | 1.25 | 1.19 | 0.408 | 0.425 | 0.396 | 0.349 | 1.13 | 1.07 | 1.09 | 0.903
NCI-H647 | 1.19 | 1.07 | 0.965 | 0.513 | 0.365 | 0.419 | 0.254 | 0.144 | 0.124 | 0.151 | 0.265 | 0.185 | 0.316 | 0.377 | 0.289 | 0.233 | 0.474 | 0.577 | 0.283 | 0.201
NCI-H2087 | 0.733 | 0.772 | 0.953 | 0.503 | 0.199 | 0.255 | 0.19 | 0.162 | 0.138 | 0.144 | 0.19 | 0.165 | 0.26 | 0.242 | 0.223 | 0.259 | 1.39 | 1.29 | 1.29 | 0.952
BEN | 0.811 | 0.941 | 0.762 | 0.489 | 0.442 | 0.488 | 0.443 | 0.439 | 0.54 | 0.269 | 0.275 | 0.438 | 0.554 | 0.621 | 0.416 | 0.443 | 0.809 | 0.808 | 0.745 | 0.447
NCI-H3122 | 0.99 | 1.05 | 1.04 | 0.601 | 0.181 | 0.194 | 0.176 | 0.139 | 0.0804 | 0.107 | 0.0795 | 0.0927 | 0.366 | 0.39 | 0.469 | 0.169 | 0.961 | 1.07 | 0.871 | 0.348
